According to publication PMC10667265 (Scientific Reports, 2023):
Where two headings read alike, the source gives them in different places. Where no end group is shown, it is not given here.

How the values were obtained:
[1] = for amidated StPIP1_1 remaining: two independent experiments, n = 16 (Fig. 6A)
potato = conditions: used as control for Pep-13; cited from earlier work
Protocol: Potato plants (Solanum tuberosum cv. Désirée) were cultivated in sterile tissue culture in a phytochamber (16 h light, ~ 140 µE, 22 °C). Plants were transferred to steam-sterilized soil and grown for 4 weeks under long day conditions in a phytochamber (16 h light, ~ 140 µE, 60% humidity, 20 °C). PAMP treatment was performed with leaf disks that were cut out from 4-week-old potato plants with a biopsy puncher (4 mm diameter) and placed with the abaxial side onto the surface of 250 µl of water in a 96-well plate. The plate was incubated overnight at 22 °C in the dark. Water from the wells was re ...

[2] = infiltrated into the abaxial side of leaves of potato plants; methanolic extracts of leaf disks; conditions: potato (Solanum tuberosum cv. Désirée), 20 °C, up to 8 h
[3] = exogenous application to leaves; cited from earlier work
Text: In Arabidopsis, PIPs are encoded by 11 genes. […] Recently, the PAMP-induced peptides StPIP1 to StPIP4 were described in potato (Solanum tuberosum[23]).

Substance: VWNQPVRGFKVYE-NH2 [Pep-13, reference compound]
- time within which the amidated peptide was converted to the acidic form ([1]; 100 µM amidated Pep-13 infiltrated into potato leaves, LC-MS, two independent experiments (Fig. 6C)): ≤ 30 min

Substance: VANQPVRGFKVYE [W2A]
- elicitor activity relative to Pep-13 (potato): nearly inactive

Substance: RLPSGPSPRGPGH-NH2 [StPIP1_1]
- amidated StPIP1_1 remaining ([1]; 100 µM amidated peptide infiltrated into leaves of phytochamber-grown potato plants, 30 min after infiltration, methanolic leaf extracts, LC-MS): 20%
- amidated StPIP1_1 remaining ([1]; 100 µM amidated peptide infiltrated into potato leaves, 1 h after infiltration, LC-MS): 10%

Substance: RLPSGPSPRGPGH-NH2
- cleaved bond [2]: H-NH2, within minutes

Substance: TLGGIKAGPSPGEGHKVVNSHHQ [StPIP1]
- ROS production [3]: does not induce
- increases in the cytosolic Ca2+ concentrations [3]: does not induce

Substance: VWNQPVRGFKVYE-NH2
- cleaved bond [2]: E-NH2, within 30 min

Substance: VWNQPVRGFKVYE [acidic form of Pep-13]
- time within which the acidic form was degraded ([1]; after infiltration of 100 µM amidated Pep-13 into potato leaves, LC-MS (Fig. 6D)): ≤ 1 h
